# In PubChem BioAssay (NCI):
#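 96-well plates; 48 h exposure; 5 concentrations. Endpoints by linear interpolation between flanking doses. Not reached: highest tested concentration assigned. TGI: concentration producing complete growth inhibition.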
# Tests used:
# Experiment in all cases: DTP human tumour cell line panel, 48 h
# [1] = system: UACC-257 melanoma
# [2] = system: SK-MEL-2 melanoma
# [3] = system: UO-31 renal
# [4] = system: MOLT-4 leukemia
# [5] = system: SNB-75 CNS
# [6] = system: TK-10 renal
# [7] = system: HOP-92 NSCLC
# [8] = system: U251 CNS
# [9] = system: OVCAR-5 ovarian
# [10] = system: NCI/ADR-RES ovarian
# [11] = system: RXF 393 renal
# [12] = system: SF-268 CNS
# [13] = system: UACC-62 melanoma
# [14] = system: EKVX NSCLC
# [15] = system: HCT-116 colon
# [16] = system: RPMI-8226 leukemia
# [17] = system: ACHN renal
# [18] = system: KM12 colon
# [19] = system: SR leukemia
Structure (SMILES),TGI [1] [µM],TGI [2] [µM],TGI [3] [µM],TGI [4] [µM],TGI [5] [µM],TGI [6] [µM],TGI [7] [µM],TGI [8] [µM],TGI [9] [µM],TGI [10] [µM],TGI [11] [µM],TGI [12] [µM],TGI [13] [µM],TGI [14] [µM],TGI [15] [µM],TGI [16] [µM],TGI [17] [µM],TGI [18] [µM],TGI [19] [µM]
CNc1ccc(C(=O)CC(O)CCC(C)C2OC(=O)CC(O)CC(=O)CC(O)CC(O)CC(O)CC(O)CC3(O)CC(O)C(C(=O)NCCN(C)C)C(CC(OC4OC(C)C(O)C(NC(=O)CN5CCN(C)CC5)C4O)/C=C/C=C/C=C/C=C\C=C/C=C/C=C/C2C)O3)cc1 (centres undefined),71,> 100,> 100,> 100,> 100,> 100,> 100,> 100,> 100,> 100,> 100,> 100,> 100,,,,,,
CC(=O)Nc1ccc(C(=O)NN2C(=O)CSC2c2ccc([N+](=O)[O-])cc2)cc1 (centres undefined),> 100,> 100,> 100,> 100,> 100,> 100,> 100,> 100,> 100,> 100,> 100,> 100,> 100,> 100,> 100,> 100,> 100,> 100,
CCCN=C(N)NC#N,> 100,> 100,> 100,> 100,> 100,> 100,> 100,> 100,> 100,,> 100,> 100,> 100,> 100,> 100,> 100,> 100,> 100,77.2
CC(C)(C)NC(NC(C)(C)C)=C(/C=C(/Cl)[N+](=O)[O-])[N+](=O)[O-],> 100,> 100,> 100,> 100,87.2,> 100,> 100,> 100,> 100,,> 100,> 100,> 100,> 100,> 100,> 100,> 100,> 100,> 100
O=c1cc(N2CCOCC2)[nH]c(=O)n1-c1ccc(F)cc1,> 100,> 100,,> 100,> 100,> 100,,> 100,> 100,> 100,> 100,> 100,> 100,> 100,> 100,> 100,> 100,> 100,
CC(=O)c1ccc(NCc2cc(O)ccc2O)cc1,33.9,57.3,23.9,> 100,28,29,39.2,54.5,44.2,> 100,27.9,,29.8,> 100,37.4,> 100,33,34.2,
COc1cc(C(Cc2ccccc2)NC(C)=O)oc(=O)c1 (centres undefined),> 100,> 100,> 100,,> 100,> 100,> 100,> 100,> 100,,> 100,> 100,> 100,> 100,,> 100,> 100,> 100,
CC1(C)COC(c2cccnc2/C=N/O)=N1,> 100,> 100,> 100,> 100,> 100,> 100,> 100,> 100,> 100,,> 100,> 100,> 100,> 100,> 100,,> 100,> 100,> 100
CO/N=C/c1cc(OC)c(OC)c(OC)c1,> 100,> 100,> 100,> 100,> 100,> 100,> 100,> 100,> 100,,,> 100,> 100,> 100,> 100,> 100,> 100,> 100,> 100
CCOc1cc2c(OCc3ccccc3)cc3c4cc(OC)c(OC)cc4c[n+](C)c3c2cc1OC,4.95,2.59,> 80.4,> 20.3,> 100,> 62.6,2.08,2.66,44,> 100,9.18,4.91,,> 100,,> 29.6,> 75.2,,
COc1ccc(C2C(Cl)C(=O)N2n2cnc3ccccc3c2=O)cc1 (centres undefined),> 100,> 100,> 100,> 100,86.2,> 100,,> 100,> 100,,> 100,> 100,> 100,> 100,> 100,> 100,> 100,> 100,> 100
COc1cc2cc3c4c(cc(OC)c(OC)c4c2cc1OC)CCN3C(=O)OCCN1CCNCC1,29.1,34.2,28.1,34.8,27.5,28.3,26.2,28.9,31.9,,27.9,23.3,28.1,28.6,24.2,34.6,28.3,28.3,29.8
CC1=CC(C)C/C=C/C2C3OC3(C)C(C)C3C(Cc4c[nH]c5ccccc45)NC(=O)C23C(=O)C=CC(=O)C1O (centres undefined),16.4,34.6,6.05,5.2,8.44,3.39,3.13,43.2,27.5,68.2,2.94,40.7,29.1,14.7,8.4,5.06,2.73,30,
CN=c1nc2sc3c(c2c(NC(=S)NC)s1)CCCC3,> 100,> 100,> 100,> 100,,> 100,> 100,> 100,> 100,,82.9,87.5,> 100,> 100,> 100,> 100,> 100,> 100,> 100
